Source: ChEMBL document CHEMBL5154806, “Synthesis and Profiling of Highly Selective Inhibitors of Methyltransferase DOT1L Based on Carbocyclic C-Nucleosides” (J Med Chem, 2022)
One block for each compound: values may come before it.

Key:
[1] = target: T1, Histone-lysine N-methyltransferase, H3 lysine-79 specific (Homo sapiens, UniProt Q8TEK3); test: Binding affinity to human DOT1L assessed as binding free energy difference
Target sequence in this assay (Q8TEK3 whole entry, looked up): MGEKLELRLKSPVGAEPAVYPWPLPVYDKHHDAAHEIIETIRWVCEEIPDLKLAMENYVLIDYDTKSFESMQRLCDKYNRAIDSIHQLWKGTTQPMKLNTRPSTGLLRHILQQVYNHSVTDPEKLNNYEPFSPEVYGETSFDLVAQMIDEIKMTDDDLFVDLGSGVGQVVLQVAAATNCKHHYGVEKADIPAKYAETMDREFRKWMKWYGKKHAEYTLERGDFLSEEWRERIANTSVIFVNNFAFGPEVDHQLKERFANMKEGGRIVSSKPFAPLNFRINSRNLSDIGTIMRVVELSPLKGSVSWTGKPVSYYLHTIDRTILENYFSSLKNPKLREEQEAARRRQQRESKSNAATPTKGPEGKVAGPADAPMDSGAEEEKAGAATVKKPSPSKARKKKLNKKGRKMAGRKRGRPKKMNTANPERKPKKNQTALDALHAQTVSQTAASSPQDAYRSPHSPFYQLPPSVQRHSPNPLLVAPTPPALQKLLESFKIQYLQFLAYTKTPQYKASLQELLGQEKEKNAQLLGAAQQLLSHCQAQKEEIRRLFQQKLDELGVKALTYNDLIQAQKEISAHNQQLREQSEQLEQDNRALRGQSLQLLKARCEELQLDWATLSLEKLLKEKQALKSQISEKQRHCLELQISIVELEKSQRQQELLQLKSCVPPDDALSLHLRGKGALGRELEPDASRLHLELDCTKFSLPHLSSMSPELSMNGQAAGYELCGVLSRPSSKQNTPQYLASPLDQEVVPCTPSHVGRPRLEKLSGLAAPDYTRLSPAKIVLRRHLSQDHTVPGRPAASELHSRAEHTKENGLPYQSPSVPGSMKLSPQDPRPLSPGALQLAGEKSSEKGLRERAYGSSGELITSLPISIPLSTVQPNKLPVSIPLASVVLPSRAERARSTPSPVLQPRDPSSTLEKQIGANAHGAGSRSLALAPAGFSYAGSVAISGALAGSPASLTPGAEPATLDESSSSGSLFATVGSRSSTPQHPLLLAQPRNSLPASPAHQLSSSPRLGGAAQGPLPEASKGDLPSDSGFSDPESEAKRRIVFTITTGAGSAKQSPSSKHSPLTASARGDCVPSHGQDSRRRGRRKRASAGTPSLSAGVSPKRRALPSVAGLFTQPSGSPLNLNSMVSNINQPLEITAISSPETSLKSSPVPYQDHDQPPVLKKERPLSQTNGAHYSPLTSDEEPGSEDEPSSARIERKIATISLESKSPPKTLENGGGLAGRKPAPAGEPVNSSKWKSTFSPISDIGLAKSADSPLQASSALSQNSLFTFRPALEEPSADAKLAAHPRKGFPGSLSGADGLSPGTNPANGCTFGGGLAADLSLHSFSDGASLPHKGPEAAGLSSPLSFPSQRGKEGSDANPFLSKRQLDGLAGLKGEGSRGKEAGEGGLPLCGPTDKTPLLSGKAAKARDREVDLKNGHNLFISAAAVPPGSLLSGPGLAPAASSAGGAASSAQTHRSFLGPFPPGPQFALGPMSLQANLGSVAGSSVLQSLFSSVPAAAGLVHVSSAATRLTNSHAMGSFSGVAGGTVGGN

[2] = Elimination rate constant in fasted BALB/c mouse at 20 mg/kg, po administered upto 600 mins by HPLC-MS/MS analysis; assay type: ADME, organism-based; conditions: in vivo
[3] = AUC (0 to infinity) in fasted BALB/c mouse at 20 mg/kg, iv administered upto 600 mins by HPLC-MS/MS analysis; assay type: ADME, organism-based; design: dose 20 mg/kg, time < 600 min, route iv; conditions: in vivo
[4] = Cmax in fasted BALB/c mouse at 20 mg/kg, iv administered upto 600 mins by HPLC-MS/MS analysis; assay type: ADME, organism-based; design: time < 600 min, dose 20 mg/kg, route iv; conditions: in vivo
[5] = AUC (0 to infinity) in fasted BALB/c mouse at 20 mg/kg, po administered upto 600 mins by HPLC-MS/MS analysis; assay type: ADME, organism-based; design: dose 20 mg/kg, time < 600 min, route po; conditions: in vivo
[6] = Tmax in fasted BALB/c mouse at 20 mg/kg, iv administered upto 600 mins by HPLC-MS/MS analysis; assay type: ADME, organism-based; conditions: in vivo
[7] = Elimination rate constant in fasted BALB/c mouse at 20 mg/kg, iv administered upto 600 mins by HPLC-MS/MS analysis; assay type: ADME, organism-based; conditions: in vivo
[8] = Tmax in fasted BALB/c mouse at 20 mg/kg, po administered upto 600 mins by HPLC-MS/MS analysis; assay type: ADME, organism-based; conditions: in vivo
[9] = AUC (0 to t) in fasted BALB/c mouse at 20 mg/kg, po administered upto 600 mins by HPLC-MS/MS analysis; assay type: ADME, organism-based; design: dose 20 mg/kg, time < 600 min, route po; conditions: in vivo
[10] = Cmax in fasted BALB/c mouse at 20 mg/kg, po administered upto 600 mins by HPLC-MS/MS analysis; assay type: ADME, organism-based; design: time < 600 min, dose 20 mg/kg, route po; conditions: in vivo
[11] = Volume of distribution in fasted BALB/c mouse at 20 mg/kg, iv administered upto 600 mins by HPLC-MS/MS analysis; assay type: ADME, organism-based; conditions: in vivo
[12] = Half life in fasted BALB/c mouse at 20 mg/kg, po administered upto 600 mins by HPLC-MS/MS analysis; assay type: ADME, organism-based; conditions: in vivo
[13] = Clearance in fasted BALB/c mouse at 20 mg/kg, iv administered upto 600 mins by HPLC-MS/MS analysis; assay type: ADME, organism-based; conditions: in vivo
[14] = AUC (0 to t) in fasted BALB/c mouse at 20 mg/kg, iv administered upto 600 mins by HPLC-MS/MS analysis; assay type: ADME, organism-based; design: dose 20 mg/kg, time < 600 min, route iv; conditions: in vivo
[15] = Bioavailability in fasted BALB/c mouse at 20 mg/kg, iv administered upto 600 mins by HPLC-MS/MS analysis; assay type: ADME, organism-based; conditions: in vivo
[16] = Half life in fasted BALB/c mouse at 20 mg/kg, iv administered upto 600 mins by HPLC-MS/MS analysis; assay type: ADME, organism-based; conditions: in vivo
[17] = target: T1, Histone-lysine N-methyltransferase, H3 lysine-79 specific; test: Inhibition of human DOT1L by hotspot PMT activity assay
Target sequence in this assay (Q8TEK3 whole entry): as the sequence (Q8TEK3 whole entry, looked up) above

deltaG [1]: 3.82 kcal/mol
Compound: CN(CCCNC(=O)Nc1ccccc1)C[C@H]1C[C@@H](c2ccc3c(N)ncnn23)[C@@H](O)[C@@H]1O

deltaG [1]: -0.239 kcal/mol
Compound: CN(CCCNC(=O)Nc1ccc(C(C)(C)C)cc1)C[C@H]1C[C@@H](c2ccc3c(N)ncnn23)[C@H](O)[C@@H]1O (stereo in doubt; (+)-25) [listing 1 of 2 here]

k el at 10 h [2]: 0.000457 s⁻¹
AUC(0-inf) [3]: 7250 ng·h/mL
Cmax [4]: 18400 ng/mL
AUC(0-inf) [5]: 845 ng·h/mL
Tmax [6]: 5 min
k el at 10 h [7]: 0.000173 s⁻¹
Tmax [8]: 120 min
AUC(0-t) at 10 h [9]: 830 ng·h/mL
Cmax [10]: 645 ng/mL
Vd [11]: 4.43 L/kg
half-life [12]: 25.3 min
clearance [13]: 46 mL/min/kg
AUC(0-t) at 10 h [14]: 7170 ng·h/mL
bioavailability [15]: 12%
half-life [16]: 66.7 min
Compound: CC(C)NC[C@@H]1C[C@H](c2ccc3c(N)ncnn23)[C@@H](O)[C@H]1O

IC50 [17]: 7.41 µM
Compound: CN(CCCNC(=O)Nc1ccc(C(C)(C)C)cc1)C[C@H]1C[C@@H](c2ccc3c(N)ncnn23)[C@H](O)[C@@H]1O (stereo in doubt; (+)-25) [listing 2 of 2 here]

IC50 [17]: > 10 µM
Compound: CN(CCCNC(=O)Nc1ccc(C(C)(C)C)cc1)C[C@H]1C[C@@H](c2cnn3c(N)ccnc23)[C@H](O)[C@@H]1O

deltaG [1]: 3.35 kcal/mol
Compound: CN(CCCNC(=O)Nc1ccccc1)C[C@H]1C[C@@](O)(c2ccc3c(N)ncnn23)[C@H](O)[C@@H]1O

IC50 [17]: 0.292 µM
Compound: CC(C)N(CCCNC(=O)Nc1ccc(C(C)(C)C)cc1)C[C@H]1C[C@@H](c2ccc3c(N)ncnn23)[C@H](O)[C@@H]1O

IC50 [17]: 0.369 µM
Compound: CN(CCCNC(=O)Nc1ccccc1)C[C@H]1C[C@@H](c2ccc3c(N)ncnn23)[C@H](O)[C@@H]1O

IC50 [17]: > 10 µM
Compound: CN(CCCNC(=O)Nc1ccc(C(C)(C)C)cc1)C[C@H]1C[C@@](O)(c2ccc3c(N)ncnn23)[C@H](O)[C@@H]1O
